Several values for one entry are separate records, joined by “and”; a condition that tells them apart may be missing. Identical values can stand only once.
Legend:
[1] = Adverse events in human patients (NCT03371420); assay type: in vivo; settings: single microdose iv
[2] = Plasma pharmacokinetics in human patients; assay type: in vivo; settings: order Patient#1, #2, #3, Mean
From the text: For the PET study, two intravenous catheters (heparin-locked) were placed in the subject for radiopharmaceutical administration and for blood sampling. […] For [^124I]-PU-HZ151 injection and blood sampling, separate peripheral intravenous lines were placed. […] For quantification of radioprobe clearance and metabolism, plasma samples were radioassayed by well counter and radioHPLC using standard techniques. […] Well counting obtained a minimum of 10,000 counts per specimen correcting for background activity and radioactive decay from time of tracer injection. An I-124 standard was assayed on the well counter to obtain a calibration factor for converting sample scintillation count rates (in cpm) to millicurie (mCi) of activity. […] This value was multiplied by the patient body weight (g) to convert to standard uptake values (SUV) for comparison with tissue SUV values measured by PET, also calculated as the ID per mL tissue volume, normalized to patient body weight (g). Blood and plasma concentration data were separately plotted versus time.

[3] = system: intracranial MDA-MB-468 tumors; experiment: PET of intracranial tumors; assay type: in vivo, mouse; set-up: radioactivity, Blood / radioactivity, Brain, normal / radioactivity, Tumor - intracranial: unit: %ID/g (percent injected dose per gram); settings: for radioactivity, Blood / radioactivity, Brain, normal / radioactivity, Tumor - intracranial: mean n=5
Description: We next investigated if the CNS-directed epichaperome probes detect epichaperome positivity and engage the target in brain tumors. MDA-MB-468 is a triple-negative breast cancer cell line, an aggressive breast cancer subtype with high propensity of metastasizing to the brain. We therefore initiated our studies with intracranial MDA-MB-468 tumors. We imaged the real-time whole-body distribution of [^124I]-labeled PU-HZ151 ([^124I]-PU-HZ151) between 1 h and 72 h to observe that PU-HZ151 was evenly distributed throughout the body with brain exposure equaling that of other tissues and non-metabolizing organs (see PET image at 1 h, Fig. 4a). A rapid clearance from HSP90 (present throughout the brain) but not epichaperome (present only in the tumor), provided unambiguous visualization and quantitation of epichaperome positivity through PET imaging. […] We also confirmed target positivity, and specific target and probe co-localization, through radiography and associated hematoxylin and eosin staining of brain tissue (Fig. 4c–e).
(§1) Orthotopic GBM xenografts in mice were established by injection of 5 × 10^5 cells in 2 μL PBS. For PET analyses, GSCs were injected into the striatum. Boreholes were made using a small hand drill. Mice were imaged with MRI (typically ~ 2–3 weeks after injection), and – if tumors were visible on MRI – they were imaged by micro-PET using the [^124I]-radiolabeled PU-HZ151. When mice started showing symptoms of progressing GBM, they received a microdose of [^124I]-PU-HZ151 and serial PET scans were performed at 20 mins, 6, 24, 48, 72, and 96 h post tracer administration using a dedicated small-animal PET scanner (Focus 120 microPET; Siemens Medical Solutions, USA, formerly Concorde Microsystems, Knoxville, TN). Mice were maintained under 2% isoflurane (Baxter Healthcare, Deerfield, IL) anesthesia in oxygen at 2 L min^−1 during the entire scanning period. To reduce the thyroid uptake of free iodide arising from metabolism of tracer, mice received 0.01% potassium iodide solution in their drinking water starting 48 h prior to tracer administration. For PET imaging, each mouse was administered [^124I]-PU-HZ151 (15 µCi g^−1, 3 µCi µL^−1 in saline, Hospira, 0.9% sodium chloride in water) via the tail vein or ip. Approximately 5 min prior to PET acquisition, mice were anesthetized by inhalation of a mixture of isoflurane (Baxter Healthcare, Deerfield, IL, USA; 2% isoflurane, 2 L min^−1 medical air) and positioned on the scanner bed. Anesthesia was maintained using a 1% isoflurane-O2 mixture. PET data for each mouse was recorded using static scans of 15 min and acquired at the indicated times post injection. Quantification and %ID g^−1 values were calculated by manually drawing regions of interests in three different frames and determining the average values using ASI Pro VM™ MicroPET Analysis software (Siemens Medical Solutions, Knoxville, TX).

lung carcinoma = experiment: PET in a lung cancer patient; assay type: in vivo, human
[4] = system: intracranial MDA-MB-468 tumors; experiment: PET of intracranial tumors; assay type: in vivo, mouse; set-up: unit: %ID/g (percent injected dose per gram); settings: 96 h, mean n=5
[5] = PET biodistribution in human patients; assay type: in vivo; settings: human, in vivo
From the text: To evaluate the brain permeability of PU-HZ151 into the human brain, we produced the [^124I]-labeled derivative and performed serial PET imaging studies of human patients (n = 3; NCT03371420), and derived time-activity (i.e. standard uptake values (SUV) versus time post-administration) curves for the brain and various other tissues (Fig. 2b). PET data obtained for [^124I]-labeled PU-H71 (NCT01269593 and ref. [39]) were used for comparison. […] The AUC values recorded for [^124I]-PU-HZ151 in the human brain post-single injection are at par with what was measured in the human muscle and lung, supportive of uptake of PU-HZ151 into the human brain (Fig. 2b). Magnetic resonance imaging (MRI), by offering structural and soft tissue resolution, confirmed the presence of PU-HZ151 in the brain tissue (Fig. 2d). […] The secondary outcome of the trial was to measure adverse events following administration of the probe. Safety of [^124I]-PU-HZ151 in human subjects was assessed by evaluation of the incidence, nature, and severity of adverse events and serious adverse events (Supplementary Note 2).
[^124I]-PU-HZ151 and [^124I]-PU-H71 were synthesized in-house by the institutional cyclotron core facility at high specific activity. Analyses of the epichaperome by positron emission tomography (PET-CT) were performed as previously reported. In brief, research PET-CT was performed using an integrated PET-CT scanner (Discovery DSTE, GE Healthcare). CT scans for attenuation correction and anatomic coregistration were performed before tracer injection. Patients received 5 mCi of [^124I]-PU-HZ151 or [^124I]-PU-H71 by peripheral vein over 2 min. PET data were reconstructed using a standard ordered subset expected maximization iterative algorithm. Emission data were corrected for scatter, attenuation, and decay. PET scans were performed 0.5, 3, and 24 h after tracer administration. Numbers in the scale bar indicate upper and lower standardized uptake value (SUV) thresholds that define pixel intensity on PET images. SUV is a pixel value, derived from PET measurements of in vivo radioactivity, quantified as the fraction of the radioactive dose injected found in a cubic centimeter of measured tissue multiplied (ie, normalized) by patient body weight (grams). Maximum Intensity Projection (MIP) 3D images were constructed from the voxels with maximum intensity that fell in the way of parallel rays traced from the viewpoint to the plane of projection. At each pixel the highest data value encountered along the corresponding viewing ray was determined. MRI scans were obtained as part of routine clinical care using hardware and standard data acquisition and processing methods. MRI was obtained using a 1.5T magnet (Signa HDxt, GE Healthcare, Milwaukee, WI). […] Gadopentetate dimeglumine (Magnevist, HealthCare Pharmaceuticals Inc.) was injected though a peripheral angiocatheter at a standard dose (0.2 mL kg^−1 body weight, 40 mL, 2 cc s^−1). For precise localization of tracer uptake to specific neuroanatomical structures, PET brain images were fused to MRI brain images using the Integrated Registration application of the AW Suite software package (GE Healthcare, Milwaukee, Wisconsin, USA).

GBM#5 = experiment: PET of intracranial tumors; assay type: in vivo, mouse; settings: microdose iv
Description: (§2) To test if our probes can detect and differentiate in vivo the epichaperome-dependent tumors from those that are not, we next performed intracranial xenotransplantation of GSCs from epichaperome-high (GSC#8), -medium (GSC#7; GSC#19) and -negative (GSC#5) specimens. For comparison we used intracranially xenotransplanted MDA-MB-468 tumors (Fig. 7a).
as §1

GBM#8 = experiment: PET of intracranial tumors; assay type: in vivo, mouse; settings: microdose iv
Description: as §2, §1

GBM#7 = experiment: PET of intracranial tumors; assay type: in vivo, mouse; settings: microdose iv
Description: as §2, §1

GBM#19 = experiment: PET of intracranial tumors; assay type: in vivo, mouse; settings: microdose iv
Description: as §2, §1

CC(C)(C)CNCCn1c(Sc2cc3c(cc2[124I])OCO3)nc2c(N)ncnc21 [[124I]-PU-HZ151]
probe-related toxicity [1]: No radioiodinated probe-related toxicity was evident
2nd Component Half-time [2]: 1.87 h and 2.97 h and 2.35 h
2nd Component Half-time ([2]; then text value): 1.87 h and 2.97 h and 2.2 h and 2.35 h and 2.35 ± 0.563 h
area under the curve (AUC) ([2]; plasma): 0.0225 (%ID g-1)h and 0.0199 (%ID g-1)h and 0.0127 (%ID g-1)h and 0.0184 (%ID g-1)h
radioactivity, Blood ([3]; 1 h): 1.8445
radioactivity, Brain, normal ([3]; 1 h): 0.4287
radioactivity, Tumor - intracranial ([3]; 1 h): 2.4287
radioactivity, Blood ([3]; 2 h): 0.7280
radioactivity, Brain, normal ([3]; 2 h): 0.0550
radioactivity, Blood ([3]; 6 h): 0.2100
radioactivity, Brain, normal ([3]; 6 h): 0.1400
radioactivity, Tumor - intracranial ([3]; 6 h): 0.6541
radioactivity, Blood ([3]; 24 h): 0.0110
radioactivity, Brain, normal ([3]; 24 h): 0.0010
radioactivity, Tumor - intracranial ([3]; 24 h): 0.1284
radioactivity, Blood ([3]; 48 h): 0.0060
radioactivity, Brain, normal ([3]; 48 h): 0.0000
radioactivity, Tumor - intracranial ([3]; 48 h): 0.0885
radioactivity, Blood ([3]; 72 h): 0.0040
radioactivity, Brain, normal ([3]; 72 h): 0.0000
radioactivity, Tumor - intracranial ([3]; 72 h): 0.0351
radioactivity, Brain, normal ([3]; 96 h): 0.0000
AUC^tumor/blood ([3]; PET, microdose iv): 1303
radioactivity, Brain-gray (lung carcinoma; 0.5 h): 1.16 SUV
radioactivity, Lung (lung carcinoma; 0.5 h): 0.56 SUV
radioactivity, Muscle (lung carcinoma; 0.5 h): 0.72 SUV
radioactivity, Tumor (lung carcinoma; 0.5 h): 2.52 SUV
radioactivity, Brain-gray (lung carcinoma; 3 h): 0.41 SUV
radioactivity, Lung (lung carcinoma; 3 h): 0.29 SUV
radioactivity, Muscle (lung carcinoma; 3 h): 0.32 SUV
radioactivity, Tumor (lung carcinoma; 3 h): 2.1 SUV
radioactivity, Brain-gray (lung carcinoma; 24 h): 0.03 SUV
radioactivity, Lung (lung carcinoma; 24 h): 0.07 SUV
radioactivity, Muscle (lung carcinoma; 24 h): 0.09 SUV
radioactivity, Tumor (lung carcinoma; 24 h): 0.79 SUV
radioactivity, Blood [4]: 0.0050
biological half-life in normal brain tissue [5]: less than 0.5 hours
AUC^tumor/blood (GBM#5): 143
AUC^tumor/blood (GBM#8): 80
AUC^tumor/blood (GBM#7): 893
AUC^tumor/blood (GBM#19): 444

From paper PMC8333062, “Chemical tools for epichaperome-mediated interactome dysfunctions of the central nervous system” (Nature Communications, 2021)
